{"source": "patent US7192905B1", "about": "“Organophosphate insecticide synergists for fly and tick control” (priority 2003, dated 2007)", "key": {"[1]": {"test_system": "Santa Luiza strain of the southern cattle tick, larvae", "assay": "FAO larval packet test, Santa Luiza strain (Example 5)", "conditions": "for resistance of the strain: Santa Luiza strain"}, "[2]": {"test_system": "Pesqueria strain of the southern cattle tick, larvae", "assay": "FAO larval packet test, Pesqueria strain (Example 6)", "conditions": "for resistance of the strain: Pesqueria strain; for mortality: 0.1% coumaphos alone"}, "[3]": {"test_system": "horn fly (Kerrville strain, susceptible reference strain)", "assay": "Horn fly adult treated filter paper bioassay, Kerrville strain (Example 1)", "format": "in vivo, Haematobia irritans irritans", "conditions": "mortality after 2 hours; for effect on toxicity of chlorpyrifos: combined with chlorpyrifos 8.0 μg/cm^2; for effect on toxicity of coumaphos: combined with coumaphos 10 μg/cm^2; for effect on toxicity of pirimiphos-methyl: combined with pirimiphos-methyl 3.0 μg/cm^2", "protocol": "(§1) The horn fly strain used in this trial (referred to as the Kerrville strain) is an in vitro strain being maintained on citrated bovine blood, and serves as a susceptible reference strain. Adult flies were exposed to organophosphate pesticide alone or in combination with varying ratios of atrazine or propazine (shown in FIGS. 1–8). Concentrations of diazinon, pirimiphos-methyl, chlorpyrifos and coumaphos were 2.8, 3.0, 8.0, and 10 μg/cm^2, respectively (measured as the amount of pesticide applied per unit area of filter paper). Compounds were dissolved in acetone and applied onto filter paper, which was then placed into petri dishes with the adult flies and held at room temperature under normal lighting conditions. Flies were examined for mortality after 2 hours."}, "[4]": {"test_system": "horn fly (Oklahoma strain, challenged with diazinon)", "assay": "Horn fly adult treated filter paper bioassay, Oklahoma strain (Example 2)", "format": "in vivo, Haematobia irritans irritans", "conditions": "for effect on coumaphos toxicity / effect on diazinon toxicity / effect on pirimiphos-methyl toxicity: triazine applied as 1% w/v solution, mortality after 2 hours; for effect on toxicity of chlorpyrifos: very high chlorpyrifos levels (140.2 μg/cm^2 and above), triazine 1% w/v", "protocol": "as §1, with “Concentrations of diazinon, pirimiphos-methyl, chlorpyrifos and coumaphos were 2.8, 3.0, 8.0, and 10 μg/cm^2, respectively (measured as the amount of pesticide applied per unit area of filter paper).” left out\nThe bioassays of Example 1 were repeated using an in vivo strain (referred to as the Oklahoma strain) maintained on steers. This horn fly strain was established using eggs from flies collected from cattle at an Oklahoma State University research ranch. The strain is maintained in vivo on steers at the USDA-ARS-KBUSLIRL, and has been challenged with diazinon. Conditions for the bioassay were the same as Example 1 except for the addition of the organophosphate fenthion, and the triazine synergists were applied as a 1% w/v solution."}, "[5]": {"test_system": "San Roman strain of the southern cattle tick, larvae", "assay": "FAO larval packet test, San Roman strain (Example 3)", "protocol": "The strain used in these bioassays was the San Roman strain of the southern cattle tick (Boophilus microplus). […] The FAO larval packet test (LPT) was used to measure the susceptibility of tick larvae to acaricides. Dilutions of acaricide were prepared, dissolving the acaricide in trichloroethylene, then mixed with olive oil (ratio=2:1). A volume of 0.7 ml of the dilution was applied uniformly onto a piece of filter paper, and allowed to dry for 2 hr (trichloroethylene evaporates). The treated filter papers were folded into “packets” using bulldog clips, and approximately 100 larvae were added into each of “pockets”, which were then kept in a incubator (27° C., 90% RH) for 24 h before reading (# of dead and alive were counted under a magnifying glass).\nIn a first trial, tick larvae were exposed to 1% atrazine alone or in combination with 0.3, 0.6, or 1.2% w/v coumaphos.\nIn a second trial, tick larvae were exposed to varying concentrations of atrazine with either 0.3% coumaphos, 0.1 or 0.05% diazinon, or 0.01% coumaphos."}, "[6]": {"test_system": "Munoz strain of the southern cattle tick, larvae", "assay": "FAO larval packet test, Munoz strain (Example 7)"}, "brown dog tick larvae": {"test_system": "brown dog tick larvae", "assay": "FAO larval packet test, brown dog tick (Example 8)", "conditions": "for effect on larvae: coumaphos alone"}, "[7]": {"test_system": "San Felipe strain of the southern cattle tick, larvae", "assay": "FAO larval packet test, San Felipe strain (Example 4)", "format": "in vivo, Boophilus microplus", "method": "The bioassays were conducted using the same process as described in Example 3, using the San Felipe strain of the southern cattle tick."}}, "data": [{"smiles": "Cc1ccc(/N=C/N(C)/C=N/c2ccc(C)cc2C)c(C)c1", "note": "[amitraz]", "values": [{"measurement": "resistance of the strain", "setting": "[1]", "result": 70, "unit": "fold"}]}, {"smiles": "CC1(C)C(C=C(Cl)Cl)C1C(=O)OCc1cccc(Oc2ccccc2)c1", "note": "(stereo not shown) [permethrin]", "values": [{"measurement": "resistance of the strain", "setting": "[1]", "result": 200, "unit": "fold"}]}, {"smiles": "CCOP(=S)(OCC)Oc1cc(C)nc(C(C)C)n1", "note": "[diazinon]", "values": [{"measurement": "resistance of the strain", "setting": "[2]", "result": "very high level of resistance"}, {"measurement": "resistance of the strain", "setting": "[1]", "result": 2.6, "unit": "fold"}]}, {"smiles": "CC(C)Nc1nc(Cl)nc(NC(C)C)n1", "note": "[propazine]", "values": [{"measurement": "effect on toxicity of chlorpyrifos", "setting": "[3]", "result": "neither atrazine nor propazine had any effect"}, {"measurement": "effect on toxicity of coumaphos", "setting": "[3]", "result": "reduced the toxicity"}, {"measurement": "effect on toxicity of pirimiphos-methyl", "setting": "[3]", "result": "synergized"}, {"measurement": "effect on coumaphos toxicity", "setting": "[4]", "result": "substantially as described in Example 1"}, {"measurement": "effect on diazinon toxicity", "setting": "[4]", "result": "substantially as described in Example 1"}, {"measurement": "effect on pirimiphos-methyl toxicity", "setting": "[4]", "result": "substantially as described in Example 1"}, {"measurement": "effect on toxicity of chlorpyrifos", "setting": "[4]", "result": "did synergize"}]}, {"smiles": "CCOP(=S)(OCC)Oc1ccc2c(C)c(Cl)c(=O)oc2c1", "note": "[coumaphos]", "values": [{"measurement": "effect on larvae (mortality)", "setting": "[5]; 0.3% coumaphos alone, 24 h", "result": "virtually no effect"}, {"measurement": "resistance of the strain to the acaricide", "setting": "[5]; compared with all strains tested", "result": "highest resistance"}, {"measurement": "mortality", "setting": "[6]; coumaphos alone 0.01%, similar to the control", "result": 36, "unit": "%"}, {"measurement": "mortality", "setting": "brown dog tick larvae; 0.035% coumaphos used with the synergist atrazine (1%)", "result": "greater than 60%"}, {"measurement": "effect on larvae", "setting": "brown dog tick larvae; higher concentrations", "result": "mortality increased"}, {"measurement": "effect on larvae", "setting": "brown dog tick larvae; less than or equal to 0.035%", "result": "no effect"}, {"measurement": "mortality", "setting": "[2]; first trial", "result": 42.6, "unit": "%"}, {"measurement": "mortality", "setting": "[2]; repeated trial", "result": 10.1, "unit": "%"}, {"measurement": "resistance of the strain", "setting": "[2]", "result": "low resistance"}, {"measurement": "resistance of the strain", "setting": "[1]", "result": 5.5, "unit": "fold"}, {"measurement": "mortality", "setting": "[1]; coumaphos alone at 0.05%", "result": 28.9, "unit": "%"}]}, {"smiles": "CCNc1nc(Cl)nc(NC(C)C)n1", "note": "[atrazine]", "values": [{"measurement": "effect on toxicity of chlorpyrifos", "setting": "[3]", "result": "neither atrazine nor propazine had any effect"}, {"measurement": "effect on toxicity of coumaphos", "setting": "[3]", "result": "reduced the toxicity"}, {"measurement": "effect on diazinon activity (fly mortality)", "setting": "[3]; combined with diazinon 2.8 μg/cm^2, even at low ratio 0.25/1", "result": "significant synergistic effect"}, {"measurement": "effect on toxicity of pirimiphos-methyl", "setting": "[3]", "result": "synergized"}, {"measurement": "effect on coumaphos toxicity", "setting": "[4]", "result": "substantially as described in Example 1"}, {"measurement": "effect on diazinon toxicity", "setting": "[4]", "result": "substantially as described in Example 1"}, {"measurement": "effect on pirimiphos-methyl toxicity", "setting": "[4]", "result": "substantially as described in Example 1"}, {"measurement": "effect on toxicity of chlorpyrifos", "setting": "[4]", "result": "did synergize"}, {"measurement": "synergism with diazinon", "setting": "[5]; 0.1 or 0.05% diazinon, weaker than with coumaphos", "result": "Synergism was also observed"}, {"measurement": "effect on coumaphos toxicity", "setting": "[5]; 1% atrazine with 0.3, 0.6 or 1.2% w/v coumaphos, first trial, 24 h", "result": "dramatically increased"}, {"measurement": "mortality", "setting": "[5]; atrazine with 0.3% coumaphos, atrazine/coumaphos ratio 2/1, 24 h", "result": 100, "unit": "%"}, {"measurement": "effect on chlorpyrifos toxicity", "setting": "[5]; high atrazine/chlorpyrifos ratios (8/1 and above)", "result": "synergized"}, {"measurement": "effect on toxicity of 0.3% coumaphos", "setting": "[5]; varying atrazine concentrations, even at atrazine/coumaphos ratio 0.25/1, second trial", "result": "strongly synergized"}, {"measurement": "toxicity of atrazine alone", "setting": "[7]; all concentrations except 0.8%", "result": "virtually non-toxic"}, {"measurement": "mortality", "setting": "[7]; atrazine alone at 0.8%", "result": 5.2, "unit": "%"}, {"measurement": "synergism with coumaphos", "setting": "[7]; combined with 0.1% coumaphos, even at lowest atrazine/coumaphos ratio 0.125/1", "result": "significant synergism"}, {"measurement": "effect on toxicity of chlorpyrifos", "setting": "[6]; 0.01% chlorpyrifos", "result": "significantly enhanced"}, {"measurement": "synergism with coumaphos", "setting": "[6]; 0.01% coumaphos", "result": "varying levels of synergism"}, {"measurement": "synergism with diazinon", "setting": "[6]; higher diazinon concentration 0.05% (data not shown)", "result": "synergistic effect of atrazine was observed even at low atrazine/diazinon ratios"}, {"measurement": "synergism with diazinon", "setting": "[6]; very low diazinon 0.005%, ratio 32/1", "result": "only provided a synergistic effect at high atrazine/diazinon ratios"}, {"measurement": "mortality", "setting": "brown dog tick larvae; atrazine alone 0.8%", "result": 25.7, "unit": "%"}, {"measurement": "mortality", "setting": "brown dog tick larvae; atrazine alone 1.0%", "result": 18.9, "unit": "%"}, {"measurement": "mortality", "setting": "brown dog tick larvae; atrazine alone at or below 0.4%", "result": "less than 4%"}, {"measurement": "effect on coumaphos toxicity", "setting": "[2]; 0.1% coumaphos, atrazine/coumaphos ratio 2/1 and above, both trials", "result": "significantly enhanced"}, {"measurement": "effect on toxicity of diazinon", "setting": "[2]; 0.25% diazinon", "result": "significantly enhanced"}, {"measurement": "synergism with coumaphos", "setting": "[1]; 0.05% coumaphos, atrazine/coumaphos ratios of 2/1 and above", "result": "Significant synergism"}, {"measurement": "synergism with diazinon", "setting": "[1]; diazinon 0.025%, similar ratios, to a lesser extent than coumaphos", "result": "Synergism was also observed"}]}]}
